Results on 34 molecules are retold here after patent publication US8148334B2, “Peptides with capacity for binding with interleukine 10 (IL-10)” (Proyecto de Biomedicina Cima, S.L., priority 2007, dated 2012).

Like-named read-outs stand apart in the source and are kept apart here. Where a SMILES comes first, the peptide text is derived from it. Where no end group is shown, it is not given here.

Series [1] in a line: Solubilization of 1 mg/mL peptides in culture medium, DMSO or urea. It counts as physicochemical. Particulars: for Resuspension with DMSO: DMSO 2% of final volume of 1 mg/mL stock and clean medium, after sonication. As for the experimental part:
In order to measure the capacity of the peptides to inhibit IL-10, it is necessary for them to be in solution in the culture medium in which the proliferation assay with MC/9 cells is conducted. To that end, an attempt was first made to dissolve the peptides in complete medium at the concentration of 1 mg/mL. Due to the fact that, of the 26 peptides of Table 1, only 10 were soluble and 2 were partially soluble in these conditions (Table 3), it was necessary to improve the solubility of the remaining peptides by adding different proportions of dimethyl sulfoxide (DMSO) or urea. Other solubilizing agents, such as guanidine hydrochloride, ethanol, methanol, isopropanol, dimethylformamide (DMF), acetone, acetonitrile, ammonia and acetic acid were also tested, but due to the fact that they were not very effective or toxic for the cells, their use was discarded. For the purpose of limiting as much as possible the toxicity of DMSO or urea, the concentration of both agents in the culture medium was kept as low as possible compatible with the in vitro assay. Thus, the maximum concentration of solubilizing agent to be added which allows conducting the in vitro proliferation assay of MC/9 cells was first determined. As indicated above, 1, 0.5, 0.1, 0.05, 0.01, 0.005 and 0.001% acetic acid, ammonia, DMSO, DMF, acetone, acetonitrile, isopropanol, methanol and ethanol and 2, 1, 0.5, 0.250, 0.125, 0.062 and 0.031 M urea and guanidine hydrochloride were tested.
Guanidine hydrochloride was very toxic in all tested concentrations. […] In the case of urea, the limit concentration was 125 mM, and for ammonia, 0.2% (maximum tested). In relation to the alcohols, they were compatible up to 1% (maximum) and acetone and acetonitrile seemed to induce MC/9 cell proliferation. DMSO: • The resuspension of the peptides identified as SEQ ID NO: 5, SEQ ID NO: 6, SEQ ID NO: 9, SEQ ID NO: 12, SEQ ID NO: 15 and SEQ ID NO: 16 with DMSO (2% of the final volume of the 1 mg/mL stock) and clean medium was tested. After subjecting them to sonication, all of them were still cloudy, except the peptide identified as SEQ ID NO: 16. Methanol/Ethanol • To dissolve peptides using these alcohols, it is necessary to use them at 100% and at this concentration they are toxic for MC/9 cells. They are toxic even at 70%. Urea • The peptides identified as SEQ ID NO: 6, SEQ ID NO: 16, SEQ ID NO: 17, SEQ ID NO: 18 and SEQ ID NO: 20 were dissolved in 8 M urea (final concentration 0.8 M in 1 mg/mL) and complete medium. Urea is relatively toxic (cpm without urea 1.128, with 120 mM urea 109, with 80 mM 308 and with 20 mM 800, but the window is maintained).
Of the total of 39 peptides indicated, 11 (in bold print) could not be solubilized with any of the indicated conditions, therefore they could not be tested in the in vitro assay.
The peptides which could not be solubilized with any of the tested conditions are indicated in bold print. part S: partially soluble; S: soluble; I: insoluble

Another series has as its system MC/9 cells. The experiment in a line: Toxicity: inhibition of mGM-CSF-induced MC/9 cell proliferation. It counts as cell-based, mouse. Particulars: inhibition of proliferation induced by 0.01 ng/mL mGM-CSF. An excerpt:
The addition of peptides with the capacity to inhibit the activity of IL-10 to the MC/9 cell culture, to which exogenous IL-10 has been added, has the effect of inhibiting the proliferation of these cells due to the fact that IL-10 promotes the proliferation thereof. However, the addition of a peptide or any component to the culture (used to improve peptide solubility) which was toxic for MC/9 cells would also have the effect of inhibiting cell proliferation. […] For this purpose, an assay in parallel of the peptides using mouse granulocyte-monocyte colony-stimulating factor (mGM-CSF) (which also promotes MC/9 cell proliferation) instead of IL-10 was conducted. The concentration of mGM-CSF used was 0.01 ng/mL. In this case, IL-4 was not used as co-stimulus. The toxicity was expressed as the percentage of inhibition of the proliferation induced by mGM-CSF.
In the case of the peptides dissolved in urea, when analyzing both the IL-10 inhibition and the toxicity, negative, positive controls and controls with antibody with the concentrations of urea present in the peptide sample (120 mM, 80 mM and 20 mM) as well as controls without urea were included. The percentage of inhibition at each concentration of peptide was calculated comparing the cpm values of the sample with the values of the controls which contained the same concentration of urea.

The mark [2] stands for this setting: 1 mg/mL peptide, read-out: Solubility, 0.8 M UREA.
[3] abbreviates: 1 mg/mL peptide, read-out: Solubility, Complete medium.

Usually solubility stands for the dissolved amount per volume that the medium holds.

As for `CC(C)[C@H](NC(=O)[C@H](C)NC(=O)[C@@H](NC(=O)[C@@H]1CCCN1C(=O)[C@H](Cc1c[nH]cn1)NC(=O)[C@H](CCCNC(=N)N)NC(=O)[C@H](CCCNC(=N)N)NC(=O)[C@H](Cc1ccccc1)NC(=O)[C@H](Cc1c[nH]cn1)NC(=O)[C@H](Cc1ccccc1)NC(=O)[C@H](CS)NC(=O)[C@H](CCCNC(=N)N)NC(=O)[C@H](Cc1c[nH]cn1)NC(=O)[C@@H](N)CS)C(C)C)C(=O)N[C@@H](Cc1ccccc1)C(=O)O` [P9] (H-CHRCFHFRRHPVAVF-OH; N-terminus and C-terminus assumed), in series [1], the solubility entry is listed as “insoluble” and the “Resuspension with DMSO” value is given as “still cloudy”.

In the case of `CC(C)[C@H](NC(=O)[C@H](C)NC(=O)[C@@H](NC(=O)[C@@H]1CCCN1C(=O)[C@H](Cc1c[nH]cn1)NC(=O)[C@H](CCCNC(=N)N)NC(=O)[C@H](CCCNC(=N)N)NC(=O)[C@H](Cc1ccccc1)NC(=O)[C@H](Cc1c[nH]cn1)NC(=O)[C@H](Cc1ccccc1)NC(=O)[C@H](CS)NC(=O)[C@H](CCCNC(=N)N)NC(=O)[C@H](Cc1c[nH]cn1)NC(=O)[C@@H](N)CS)C(C)C)C(=O)N[C@@H](Cc1ccccc1)C(=O)O` [compound 6] (H-CHRCFHFRRHPVAVF-OH; N-terminus and C-terminus assumed), in series [1] (1 mg/mL peptide), the “Solubility, 2% DMSO” value is listed as “Turbidity”. The solubility in series [1] (setting [2]) was > 1000 µg/mL; in series [1] (setting [3]), < 1000 µg/mL. With `CC(C)C[C@H](NC(=O)[C@H](Cc1ccccc1)NC(=O)[C@H](C)NC(=O)[C@H](CC(C)C)NC(=O)[C@@H](NC(=O)[C@H](Cc1ccccc1)NC(=O)[C@H](CC(C)C)NC(=O)[C@H](Cc1c[nH]cn1)NC(=O)[C@H](CS)NC(=O)[C@H](CS)NC(=O)[C@H](CCCNC(=N)N)NC(=O)[C@H](Cc1c[nH]cn1)NC(=O)[C@H](C)N)[C@@H](C)O)C(=O)N[C@@H](Cc1ccccc1)C(=O)N[C@@H](C)C(=O)O` [compound 21] (H-AHRCCHLFTLAFLFA-OH; N-terminus and C-terminus assumed), the “Solubility, 0.8 M UREA” value in series [1] (1 mg/mL peptide) is given as “Turbidity”. For the same molecule, the solubility in series [1] (setting [3]) was < 1000 µg/mL. For `CC(C)C[C@H](NC(=O)CNC(=O)[C@H](C)NC(=O)[C@H](CS)NC(=O)[C@@H](NC(=O)[C@H](Cc1ccccc1)NC(=O)[C@H](Cc1ccccc1)NC(=O)[C@H](CO)NC(=O)[C@@H](N)CCC(=O)O)C(C)C)C(=O)N[C@@H](CS)C(=O)N[C@@H](CCCNC(=N)N)C(=O)N[C@@H](CC(C)C)C(=O)N[C@@H](CCC(N)=O)C(=O)N1CCC[C@H]1C(=O)N[C@@H](Cc1ccc(O)cc1)C(=O)O` [compound 23] (H-ESFFVCAGLCRLQPY-OH; N-terminus and C-terminus assumed), in that order: “Turbidity” and < 1000 µg/mL. Take `CC[C@H](C)[C@H](NC(=O)[C@H](CC(C)C)NC(=O)[C@H](Cc1ccccc1)NC(=O)CNC(=O)[C@@H](NC(=O)[C@H](CC(C)C)NC(=O)[C@H](C)NC(=O)[C@H](CO)NC(=O)[C@H](CS)NC(=O)CN)C(C)C)C(=O)N[C@@H](CC(C)C)C(=O)N[C@@H](CC(C)C)C(=O)N[C@@H](CS)C(=O)N[C@@H](CS)C(=O)N[C@@H](CCSC)C(=O)O` [compound 26] (H-GCSALVGFLILLCCM-OH; N-terminus and C-terminus assumed): the “Solubility, 0.8 M UREA” value in series [1] (1 mg/mL peptide) is “Turbidity”. In series [1] (setting [3]), the solubility is < 1000 µg/mL. On to AKVPSFRRSSLGSVR [compound 4], for which the solubility in series [1] (setting [3]) was > 1000 µg/mL. As for ARFPKELRGSVRSAH [compound 14], the solubility in series [1] (setting [3]) is > 1000 µg/mL. ARWMHRHHGWSDRHR [compound 2]: the solubility in series [1] (setting [3]) was > 1000 µg/mL. On the same count and under the same terms, under FRSFHYHTGRWHWLP [compound 22] stands < 1000 µg/mL. On to FSWYFRHHRLMVAGP [P24], for which the “toxicity for MC/9 cells” value in the series on MC/9 cells was “partially toxic”.

FSWYFRHHRLMVAGP [compound 18]: the solubility in series [1] (setting [2]) was > 1000 µg/mL; in series [1] (setting [3]), < 1000 µg/mL. In the case of GAGVLTPFTWRRFHM [compound 10], in series [1] (setting [3]), the solubility is > 1000 µg/mL.

Take GRFRHYSMLRHHSIR [compound 19]: in series [1] (setting [3]), the solubility was > 1000 µg/mL. For the molecule GRVPSMFGGHFFFSR [P21], the “Resuspension with DMSO” value in series [1] is reported as “still cloudy”.

Consider GRVPSMFGGHFFFSR [compound 15], for which, in series [1] (1 mg/mL peptide), the “Solubility, 0.8 M UREA” value is recorded as “Turbidity” and the “Solubility, 2% DMSO” value is listed as “Turbidity”. Further, the solubility in series [1] (setting [3]) is < 1000 µg/mL. Turning to GVLSSIFSWRLVALH [P18], the “Resuspension with DMSO” value in series [1] is “still cloudy”. On to GVLSSIFSWRLVALH [compound 12], for which, in series [1] (1 mg/mL peptide), the “Solubility, 0.8 M UREA” value is “Turbidity” and the “Solubility, 2% DMSO” value is reported as “Turbidity”. Besides, in series [1] (setting [3]), the solubility is < 1000 µg/mL. Regarding HGFFAGGLAHWHGHR [P26], the “toxicity for MC/9 cells” value in the series with MC/9 cells is listed as “partially toxic”.

HGFFAGGLAHWHGHR [compound 20]: the solubility in series [1] (setting [2]) is > 1000 µg/mL; in series [1] (setting [3]), < 1000 µg/mL.

On to HRHFRWLNGMPRLLG [compound 25], for which the solubility in series [1] (setting [3]) was < 1000 µg/mL. In the case of HRWMPHVFAVRQGAS [compound 7], the solubility in series [1] (setting [3]) is > 1000 µg/mL. On the same count and under the same terms, then IFRVLSRMLPGTSVI [compound 13], with > 1000 µg/mL.

Take LFLLSGVFVPDLHEG [compound 24]: in series [1] (1 mg/mL peptide), the “Solubility, 0.8 M UREA” value was “Turbidity”. Moreover, the solubility in series [1] (setting [3]) is < 1000 µg/mL. Take PFVVSDIAFMGLFYD [compound 3]: the solubility in series [1] (setting [3]) is < 1000 µg/mL.

As for RFYHADMLLRHVLMM [P8], the “Resuspension with DMSO” value in series [1] is listed as “still cloudy”. With RFYHADMLLRHVLMM [compound 5], in series [1] (1 mg/mL peptide), the “Solubility, 0.8 M UREA” value is given as “Turbidity” and the “Solubility, 2% DMSO” value is “Turbidity”. In addition, the solubility in series [1] (setting [3]) is < 1000 µg/mL. With RGWILDVVYLYPGPL [compound 17], the solubility in series [1] (setting [2]) and in series [1] (setting [3]) was < 1000 µg/mL each time. On to RKLRPHWLHFHPVAV [compound 1], for which, in series [1] (setting [3]), the solubility is > 1000 µg/mL.

As for RMLGFMSGSWRTPVR [compound 11], in series [1] (setting [3]), the solubility was > 1000 µg/mL. In the case of TRHRHVPRFLPLRHV [P13], the solubility entry in series [1] is recorded as “soluble”. Regarding TRHRHVPRFLPLRHV [compound 8], the solubility in series [1] (setting [3]) is > 1000 µg/mL. For the molecule WAYYHAGHSSFAVWT [P14], the “Resuspension with DMSO” value in series [1] is on record as “still cloudy”.

Regarding WAYYHAGHSSFAVWT [compound 9], in series [1] (1 mg/mL peptide), the “Solubility, 0.8 M UREA” value is “Turbidity” and the “Solubility, 2% DMSO” value is recorded as “Turbidity”. In series [1] (setting [3]), the solubility is < 1000 µg/mL. For the molecule WSLLRIVYNRHSHSK [compound 16], the solubility was > 1000 µg/mL in series [1] (setting [2]); < 1000 µg/mL in series [1] (1 mg/mL peptide, read-out: Solubility, 2% DMSO); < 1000 µg/mL in series [1] (setting [3]).
